In data set [1] the target is human muscarinic M3 receptor (Homo sapiens, UniProt P20309).
The target in data set [2] is T1, human c-Mpl-introduced Ba/F3 cell (Homo sapiens, UniProt P40238).
T1 construct: expressed in transfected cells
T1 sequence (P40238 26-635): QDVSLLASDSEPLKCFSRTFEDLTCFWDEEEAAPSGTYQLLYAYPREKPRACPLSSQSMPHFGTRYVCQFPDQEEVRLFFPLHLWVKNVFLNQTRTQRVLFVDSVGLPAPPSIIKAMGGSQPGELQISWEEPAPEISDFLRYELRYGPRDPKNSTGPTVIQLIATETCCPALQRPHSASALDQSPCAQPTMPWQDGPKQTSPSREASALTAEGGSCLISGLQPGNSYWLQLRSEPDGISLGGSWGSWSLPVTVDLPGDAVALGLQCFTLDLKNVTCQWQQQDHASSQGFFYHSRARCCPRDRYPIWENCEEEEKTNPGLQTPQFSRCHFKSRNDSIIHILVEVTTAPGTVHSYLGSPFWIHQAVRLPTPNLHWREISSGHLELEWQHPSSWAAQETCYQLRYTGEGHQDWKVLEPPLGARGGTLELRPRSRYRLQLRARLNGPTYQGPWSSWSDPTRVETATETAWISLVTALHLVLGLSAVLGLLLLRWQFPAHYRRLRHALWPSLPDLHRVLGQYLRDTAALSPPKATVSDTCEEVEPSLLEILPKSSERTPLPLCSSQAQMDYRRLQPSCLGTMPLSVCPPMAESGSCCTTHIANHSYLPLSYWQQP
The data set can be described thus: Test Example 2: human c-Mpl-introduced Ba/F3 cell proliferative activity. In kind it is cell-based. Particulars: concentration exhibiting 30% proliferation; 100% = positive control (Example 315 of Patent Document 1) at 1 μM. In outline:
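Ba/F3 cells stably expressing human c-Mpl seeded at 1×10^4 cells/well with test substance (100 nM to 10 μM final) in RPMI-1640/10% FBS, overnight at 37 °C. Cell number by WST-type kit absorbance at 450 nm after ~5 h; proliferation % relative to untreated (0%) and reference agonist at 1 μM (100%).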

The test system of data set [3] is rat isolated bladder. In words: Test Example 3: effect on electrical field stimulation-induced contraction in rat isolated bladder. Particulars: 10 μM test substance; AUC of contraction, value before treatment = 100%; SD female rat bladder. The procedure:
Test Example 3: Effect on Electrical Field Stimulation-Induced Contraction in Rat Isolated Bladder
As an effect on the nerve stimulation-dependent bladder contraction in in vitro, the effect of the Example compounds of the present invention in the electrical field stimulation-induced contraction of the rat isolated bladder was measured by the following method. That is, a bladder specimen having a width of about 2 mm and a length of about 10 mm in the longitudinal direction from the bladder isolated from a Sprague-Dawley (SD) female rat (Japan SLC, Inc.) was prepared. The prepared bladder specimen was suspended in an organ bath filled with 10 mL of a Krebs-Henseleite solution. The Krebs-Henseleite solution was aerated at 95% 02 and 5% CO2, and kept at 37° C. After carrying out stabilization at an initial tension of 1 g, the contraction was caused twice with 60 mM KCl. After stabilization of the specimen with a Krebs-Henseleite solution, the contraction was caused by carrying out electrical field stimulation at 20 V with an electrical stimulation device (Nihon Kohden) (a stimulation frequency of 8 Hz, a pulse width of 0.3 msec, and a stimulation time of 10 seconds). By repeating the transmural electrical stimulation at an interval of 2 minutes, a voltage was adjusted to obtain a contraction height of approximately 50% of the contractile response at 20 V. After the contraction by electrical field stimulation had been stabilized, 10 μL of the test substances dissolved in 100% dimethyl sulfoxide in advance (final concentrations of 3 μM, 10 μM, and 30 μM) was added thereto. The test substances were cumulatively administered at the following concentrations after the low-concentration contractile response had been stabilized. The response was taken into a personal computer through a PowerLab (registered trademark) (AD Instruments, Inc.), and analyzed by LabChart (registered trademark) (AD Instruments, Inc.). When the area under the response (area under curve, AUC) in each contraction response was calculated and the value before treatment with the test substance was taken as 100%, the enhancement rate (% of pre) of the isolated bladder contractions after treatment with the test substance was calculated.

Chain of human muscarinic M3 receptor (P20309 whole entry): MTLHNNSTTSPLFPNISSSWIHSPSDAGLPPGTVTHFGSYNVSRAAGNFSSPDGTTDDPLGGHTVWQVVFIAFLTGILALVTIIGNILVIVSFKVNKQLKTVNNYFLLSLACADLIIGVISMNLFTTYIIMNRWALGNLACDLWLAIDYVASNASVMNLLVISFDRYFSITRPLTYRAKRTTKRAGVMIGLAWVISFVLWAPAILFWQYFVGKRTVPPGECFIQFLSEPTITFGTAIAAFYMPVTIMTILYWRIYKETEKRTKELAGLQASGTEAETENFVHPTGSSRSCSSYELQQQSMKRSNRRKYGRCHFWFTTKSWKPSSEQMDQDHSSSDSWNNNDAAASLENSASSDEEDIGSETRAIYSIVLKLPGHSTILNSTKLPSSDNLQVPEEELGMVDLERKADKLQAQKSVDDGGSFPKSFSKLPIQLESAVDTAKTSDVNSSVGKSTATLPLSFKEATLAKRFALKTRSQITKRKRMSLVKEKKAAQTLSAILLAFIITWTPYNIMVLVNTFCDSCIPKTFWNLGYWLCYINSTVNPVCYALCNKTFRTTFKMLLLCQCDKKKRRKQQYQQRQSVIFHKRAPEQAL

As to `CC[C@@H]1CCCN1Cc1sc(NC(=O)c2cnc(N3CCN(CCC(=O)O)C[C@H]3C)cn2)nc1-c1ccc(OC(C)C)c(C(F)(F)F)c1` [Example 135], in data set [1], the “muscarinic M3 receptor-positive allosteric modulator activity, 1 μM (-fold shift)” value was 25 -fold shift and the “muscarinic M3 receptor-positive allosteric modulator activity, 10 μM (-fold shift)” value was 204 -fold shift. For the same compound, in data set [2], the “human c-Mpl-introduced Ba/F3 cell proliferative activity EC30” value was more than 10 µM. In addition, the “Enhancement rate (% of pre) of isolated bladder contractions” value in data set [3] is 139 % of pre.

With `C[C@@H]1CCCN1Cc1sc(NC(=O)c2cnc(N3CCN(CCC(=O)O)C[C@H]3C)cn2)nc1-c1cc(F)cc(C(F)(F)F)c1` [Example 140], in data set [1], the “muscarinic M3 receptor-positive allosteric modulator activity, 1 μM (-fold shift)” value was 28 -fold shift and the “muscarinic M3 receptor-positive allosteric modulator activity, 10 μM (-fold shift)” value is on record as 158 -fold shift. Besides, the “human c-Mpl-introduced Ba/F3 cell proliferative activity EC30” value in data set [2] is more than 10 µM. Also, the “Enhancement rate (% of pre) of isolated bladder contractions” value in data set [3] is given as 161 % of pre.

Take `C[C@@H]1CCCN1Cc1sc(NC(=O)c2cnc(N3CCN(CC(=O)O)C[C@H]3C)cn2)nc1-c1cc(F)cc(C(F)(F)F)c1` [Example 141]: in data set [1], the “muscarinic M3 receptor-positive allosteric modulator activity, 1 μM (-fold shift)” value is reported as 45 -fold shift and the “muscarinic M3 receptor-positive allosteric modulator activity, 10 μM (-fold shift)” value was 159 -fold shift. Further, in data set [2], the “human c-Mpl-introduced Ba/F3 cell proliferative activity EC30” value was more than 10 µM. In addition, in data set [3], the “Enhancement rate (% of pre) of isolated bladder contractions” value is recorded as 121 % of pre.

With `C[C@@H]1CCCN1Cc1sc(NC(=O)c2cnc(N3CCN(CCC(=O)O)[C@@H](C)C3)cn2)nc1-c1cc(Cl)cs1` [Example 142], in data set [1], the “muscarinic M3 receptor-positive allosteric modulator activity, 1 μM (-fold shift)” value is on record as 52 -fold shift and the “muscarinic M3 receptor-positive allosteric modulator activity, 10 μM (-fold shift)” value was 160 -fold shift. Also, the “human c-Mpl-introduced Ba/F3 cell proliferative activity EC30” value in data set [2] worked out at 4.7 µM. The “Enhancement rate (% of pre) of isolated bladder contractions” value in data set [3] is 196 % of pre.

As for `CC[C@@H]1CCCN1Cc1sc(NC(=O)c2cnc(N3CCN(CCC(=O)O)[C@H](C)C3)cn2)nc1-c1cc(Cl)cs1` [Example 143], in data set [1], the “muscarinic M3 receptor-positive allosteric modulator activity, 1 μM (-fold shift)” value is 65 -fold shift and the “muscarinic M3 receptor-positive allosteric modulator activity, 10 μM (-fold shift)” value is 81 -fold shift. In addition, the “human c-Mpl-introduced Ba/F3 cell proliferative activity EC30” value in data set [2] came out at 7.8 µM. In addition, the “Enhancement rate (% of pre) of isolated bladder contractions” value in data set [3] is 140 % of pre.
